Laboratory results taken from patent publication US8529872B2, “Seeds and markers for use in imaging” (Board of Regents, The University of Texas System, priority 2007, dated 2013).
Read-outs that look alike come from different tables or passages of the source.

Legend:
[1] = cited from earlier work
[2] = MR relaxation measurements of C4 complex at 1.5 T; format: physicochemical; settings: for T1 (ms) μ / T2 (ms) μ: 1.5T, 23° C.
Method: (§1) MR imaging measurements were performed on a 1.5 T clinical scanner (Excite HD, GEHT, Waukesha, Wis.) to characterize the relaxation properties of the new cobalt complex after each new modification of the C4 chemistry was made. Several iterations were performed before obtaining a stable sample. Additional measurements at 3.0 T (Excite HD, GEHT, Waukesha, Wis.) were made once the design of the C4 complex was stable. Each session or iteration (n=5) took approximately 2 hours to collect all the relaxation data.
[…] Theses solutions were placed in a water bath and imaged at room temperature (23° C.). Experiments were performed to ascertain the spin-lattice relaxivity (R1), spin-spin relaxivity (R2) and true spin-spin relaxivity (R2*) at 1.5 T and 3 T using a volume knee coil to excite and receive the MR signal.
(§2) R1 measurements were performed using a spin-echo inversion recovery (SE-IR) sequence with parameters: Inversion Time (TI)={0.05, 0.1, 0.2, 0.3, 0.4, 0.5, 0.6, 0.7, 0.8, 0.9, 1.0, 1.2, 1.4, 1.6, 1.8, 2.0} sec, Pulse Repetition Time (TR)=5000, Time to Echo (TE)=10 ms, slice thickness=3 mm, acquisition matrix=256 (frequency)×128 (phase), receiver bandwidth (rBW)=±15 kHz and the number of excitations (NEX)=1.
(§3) R2 measurements were carried out using an SE sequence with parameters: TE={15, 20, 40, 60, 100, 150, 200, 250, 300 and 500 ms}, TR=5000 ms, slice thickness=3 mm, matrix size=256×128, rBW=±15 kHz and NEX=1.
(§4) The slopes of R1 and R2 curve versus concentration were used to determine the relaxivity (r1 and r2) in mM^−1 s^−1 as shown in the following tables. A weighted least-linear squares fitting routine was written in MATLAB to calculate the fit parameters accounting for the uncertainty as well as calculating the net uncertainty in the derived measurement. Note that in the final quantitative analysis, R2* measurements are excluded since the samples seemed to have interfering magnetic effects that could alter results.

[3] = Surface tension of contrast agents (Fisher 21 tensiometer); format: physicochemical
From the text: The Fisher 21 tensiometer was used to measure surface tension of contrast agents with accuracy t within +/−0.25%.

[4] = Magnetic properties of contrast agent solutions by VSM; format: physicochemical
Method: The magnetic properties of contrast agent solutions were determined by VSM (Vibrating Sample Magnetometer) at room temperature and magnetic field up to 1.5 T.
FIG. 20a-20d show the magnetic properties of various aqua solutions of Co/glycine with concentration 1, 3, 5, 8 and 10%.

[5] = Viscosity of contrast agent solution (Brookfield viscometer); format: physicochemical; settings: room temperature
Method: Viscosity of contrast agent solution was measured at room temperature by using Brookfield digital viscometer DV-II.

[6] = pH of aqua solution of contrast agent; format: physicochemical
Method: For preparation of aqua solution of contrast agent, the as-synthesized cobalt/glycine crystallites were dissolved in distillated water (0.3-10 wt %) and stirred at the room temperature with a magnetic stir bar for 1 h and then sonicated for 30 min.
The value of pH varied from 2.6 to 6.5.

[7] = MR relaxation measurements of C4 complex at 3.0 T; format: physicochemical; settings: 3.0T; for T1 (ms) μ / T2 (ms) μ: 23° C.
Method: as §1
Concentrations of the complex were prepared in 0.1%, 0.3%, 0.5%, 0.75% and 1.0% solutions provided by the UH group. Theses solutions were placed in a water bath and imaged at room temperature (23° C.). Experiments were performed to ascertain the spin-lattice relaxivity (R1), spin-spin relaxivity (R2) and true spin-spin relaxivity (R2*) at 1.5 T and 3 T using a volume knee coil to excite and receive the MR signal.
as §2, §3, §4

[8] = Characterization of the C4 complex at 7 T; format: physicochemical; design: T2 / T1 / T2* / T2*-2: unit not given here; settings: for T2*-2: second T2* measurement
Method: […] Characteristic T1, T2, and T2* relaxation times of the preparations were measured at each concentration. T1 measurements were made using a fast spin-echo saturation-recovery sequence (TE=63 ms; TR=400 ms, 500 ms, 1000 ms, 1500 ms, 2500 ms, 500 ms; FOV=3.2 cm×3.2 cm; matrix=64×64; echo train length=12; slice thickness=1 mm). T2 measurements were made using a CPMG multi-spin-echo sequence (TE=n×15 ms, 1≦n≦24; TR=1100 ms). T2* measurements were made using a multi-gradient echo sequence (TE=1.5 ms+n×[…], 0≦n≦15; TR=500 ms, 4000 ms). The image matrix and slice prescription for all measurements were kept constant. The characteristic T1, T2, and T2* relaxation time constants of each compartment were measured using Paravision 4.0, and the relaxivities of the contrast agent were estimated by fitting measured data to the Solomon-Bloembergen-Morgan model using Matlab.

[9] = Temporal stability of R1 of the cobalt complex; format: physicochemical; settings: taken 54 days apart
[10] = Octanol-water partition coefficient; format: physicochemical
Method: […] The resulting biphasic solution was shaken vigorously for two hours at which point 400 μL of the octanol layer and 400 μL of the water layer were removed. The solvent from each sample was removed under reduced pressure and the mass of the compound in the octanol sample was divided by the mass of the compound in the water sample. This experiment was repeated in triplicate, and the results were averaged to give the Log (Poct/wat) values. All complexes were completely soluble in the mixture of octanol and water.

[11] = T1 relaxivity of Gd-chelated polymeric contrast agent at 1.5 T; format: physicochemical
From the text: A Gd-chelated polymeric MRI contrast agent 20 (Gd Hydrogel) based on a biodegradable, biocompatible poly(L-glutamic acid) (L-PG) backbone was also synthesized and characterized. […] “Blooming” occurs with MR imaging when the contrast agent 20 is encapsulated by titanium and cannot be visualized due to the susceptibility artifacts
To characterize the contrast agents 20, they were filtrated and injected into the glass capillary tube with 4 mm in length and OD=0.8 mm, ID=0.5 mm with volume of 0.5-1 μL. Water-proton relaxivities were measured at variable temperature (278-335 K), and as a function of magnetic field (1.5 T, 3 T, 4.7 T, and 7 T). Slight differences between the relaxivities of these agents at different field strengths will require slightly different concentrations for optimal visibility at these field strengths. By pH dependency of the proton relaxivities we will evaluate the synthesized CAM for pH-responsive MRI contrast agent 20 applications. Although 4.7 T is not a field strength commonly associated with clinical MRI, it complements the data collected at more clinically relevant field strengths and helps to identify trends in agent relaxivity.

[12] = 1.5 T (23° C.), De Bazelaire 2004

## CNC[C@H](O)[C@@H](O)[C@H](O)[C@H](O)CO.CNC[C@H](O)[C@@H](O)[C@H](O)[C@H](O)CO.O=C([O-])CN(CCN(CC(=O)[O-])CC(=O)O)CCN(CC(=O)[O-])CC(=O)O.[Gd+3] [Magnevist]
[1]; [12]
  r2/r1: 1.12±0.01
  relaxivity r1: 4.68 ± 0.06 mM/s
  relaxivity r2: 5.57 ± 0.07 mM/s
[1]; 1.5 T in phosphate-buffered saline, Unger 1999
  relaxivity: 4.1 mM⁻¹ s⁻¹
[1]; 7 T, for reference
  T1 relaxivity: approximately 5.3 (mM·s)^−1

## (CoCl2)n(C2H5NO2)1-n [Example C4]
[2]; 0.1%-8.25 mM
  T1 relaxation time: 782 ms
[2]; 1.5 T
  relaxivity r1: 0.086 ± 0.006 mM/s
  relaxivity r1, Slope μ: 0.086 mM⁻¹ s⁻¹
  relaxivity r2: 0.097 ± 0.010 mM/s
[2]; 0.10 % Wt, 8.25 mM
  T1 (ms) μ: 782.0 ms
  T2 (ms) μ: 836.0 ms
[2]; 0.30 % Wt, 24.76 mM
  T1 (ms) μ: 379.0 ms
  T2 (ms) μ: 354.0 ms
[2]; 0.50 % Wt, 41.27 mM
  T1 (ms) μ: 235.0 ms
  T2 (ms) μ: 215.0 ms
[2]; 0.75 % Wt, 61.90 mM
  T1 (ms) μ: 172.0 ms
  T2 (ms) μ: 153.0 ms
[2]; 1.00 % Wt, 82.53 mM
  T1 (ms) μ: 130.0 ms
  T2 (ms) μ: 120.0 ms
[2]; 10%-825 mM
  T1 relaxation time: 61 ms
[3]; contrast agent solution 0.5 %
  Surface tension: 72.8 dynes/cm
[3]; contrast agent solution 5 %
  Surface tension: 73.6 dynes/cm
[4]; contrast agent solution 0.5 %
  Magnetic properties: paramagnetic
[4]; contrast agent solution 5 %
  Magnetic properties: paramagnetic
[5]; contrast agent solution 0.5 %
  Viscosity: 1.0 cP
[5]; contrast agent solution 5 %
  Viscosity: 1.1 cP
[6]; contrast agent solution 0.5 %
  pH: 6.1
[6]; contrast agent solution 5 %
  pH: 3.2
[7]
  relaxivity r1, Slope μ: 0.070 mM⁻¹ s⁻¹
[7]; 0.10 % Wt, 8.25 mM
  T1 (ms) μ: 866.0 ms
  T2 (ms) μ: 530.0 ms
[7]; 0.30 % Wt, 24.76 mM
  T1 (ms) μ: 432.0 ms
  T2 (ms) μ: 215.0 ms
[7]; 0.50 % Wt, 41.27 mM
  T1 (ms) μ: 288.0 ms
  T2 (ms) μ: 124.0 ms
[7]; 0.75 % Wt, 61.90 mM
  T1 (ms) μ: 202.0 ms
  T2 (ms) μ: 104.0 ms
[7]; 1.00 % Wt, 82.53 mM
  T1 (ms) μ: 164.0 ms
  T2 (ms) μ: 105.0 ms
[8]
  R1 (T1 relaxivity estimate): R1 = 0.0979
  T1 relaxivity: 0.0979 mM/s
  T2* relaxivity: ~0.618 mM/s
  T2 relaxivity: 0.502 mM/s
[8]; 8.25 mM
  T1: 980.805
  T2: 74.85
  T2*: 141.415
  T2*-2: 146.68
[8]; 24.76 mM
  T1: 524.66
  T2: 45.175
  T2*: 50.42
  T2*-2: 52.755
[8]; 41.27 mM
  T1: 533.955
  T2: 31.14
  T2*: 32.37
  T2*-2: 34.135
[8]; 61.9 mM
  T1: 160.45
  T2: 22.96
  T2*: 24.85
  T2*-2: 25.55
[8]; 82.53 mM
  T1: 116.5
  T2: 20.84
  T2*: 17.99
  T2*-2: 17.64
[9]
  degradation or breakdown over time: difference between two R1 measurements: no statistically significant difference was observed
[10]; contrast agent solution 0.5 %
  Partition Coefficient, Log P: (−0.15) −
[10]; contrast agent solution 5 %
  Partition Coefficient, Log P: (−0.09)

## L-PG-Bz-DTPA-Gd
[11]
  T1 relaxivity: 25 mM⁻¹ s⁻¹
  T1 relaxivity, times greater than that of Gd-DTPA: more than 6 times
